Experimental data as given in patent publication US4714764A, “2-(4-pyridylaminomethyl)-benzimidazole derivatives having antiviral activity” (Maruishi Seiyaku Kabushiki Kaisha, priority 1985, dated 1987).
Counter-ions that a name gives are not always drawn.

Legend:
[1] = Morphological cytotoxicity in LLC-MK2 cells; assay type: cell-based; details: monkey, 33° C., examined at 48, 72, 96 and 120 h, read-out: CD50 (lowest concentration that caused morphological cytotoxicity by 50% or more)
[2] = tested on: enterovirus type 70; test: Inhibition of virus cytopathogenic effect (CPE) in LLC-MK2 cells; assay type: cell-based; details: for CI (chemotherapeutic index): CI=CD50 /ID50; for IC50: Enterovirus D, enterovirus type 70, 100-300 TCID50, LLC-MK2 cells, 33° C., examined at 48, 72, 96 and 120 h, read-out: IC50 (lowest concentration that reduced virus CPE by 50% or more)

| IC50 [2] [µg/mL] | SMILES | CC50 [1] [µg/mL] | CI (chemotherapeutic index) [2] |
| --- | --- | --- | --- |
| 27.6 | COc1ccc2[nH]c(CNc3ccncc3)nc2c1 [Compound IV, 2-(4-pyridylaminomethyl)-5(6)-methoxybenzimidazole dihydrochloride] | 1770 | 64 |
| > 100 | O=[N+]([O-])c1ccc2[nH]c(CNc3ccncc3)nc2c1 [Compound VI, 2-(4-pyridylaminomethyl)-5(6)-nitrobenzimidazole dihydrochloride] | > 100 | – |
| 1.8 | Cc1ccc2[nH]c(CNc3ccncc3)nc2c1 [Compound V, 2-(4-pyridylaminomethyl)-5(6)-methylbenzimidazole dihydrochloride] | 562 | 311 |
| 0.98 | CCc1ccc2[nH]c(CNc3ccncc3)nc2c1 [Compound X, 2-(4-pyridylaminomethyl)-5(6)-ethylbenzimidazole dihydrochloride] | 354 | 362 |
| > 100 | O=C(c1ccccc1)c1ccc2[nH]c(CNc3ccncc3)nc2c1 [Compound III, 2-(4-pyridylaminomethyl)-5(6)-benzoylbenzimidazole dihydrochloride] | > 100 | – |
| 3 | Cc1cc2nc(CNc3ccncc3)[nH]c2cc1C.Cl.Cl [Compound XII, 2-(4-pyridylaminomethyl)-5,6-dimethylbenzimidazole dihydrochloride] | 707 | 239 |
| 5.5 | FC(F)(F)c1ccc2[nH]c(CNc3ccncc3)nc2c1 [Compound IX, 2-(4-pyridylaminomethyl)-5(6)-trifluoromethylbenzimidazole dihydrochloride] | 354 | 64 |
| > 100 | Cc1cccc2[nH]c(CNc3ccncc3)nc12 [Compound XI, 2-(4-pyridylaminomethyl)-4(7)-methylbenzimidazole dihydrochloride] | > 100 | – |
| 1.8 | Clc1ccc2[nH]c(CNc3ccncc3)nc2c1 [Compound II, 2-(4-pyridylaminomethyl)-5(6)-chlorobenzimidazole dihydrochloride] | 178 | 99 |
| 1.4 | Cl.Cl.Clc1cc2nc(CNc3ccncc3)[nH]c2cc1Cl [Compound VII, 2-(4-pyridylaminomethyl)-5,6-dichlorobenzimidazole dihydrochloride] | 177 | 126 |
| 3.7 | Cl.Cl.c1ccc2[nH]c(CNc3ccncc3)nc2c1 [Compound I, 2-(4-pyridylaminomethyl) benzimidazole dihydrochloride] | 562 | 152 |
| > 100 | Nc1ccc2[nH]c(CNc3ccncc3)nc2c1 [Compound VIII, 2-(4-pyridylaminomethyl)-5(6)-aminobenzimidazole trihydrochloride] | > 100 | – |
